Test: Cytotoxicity against human LOX cells
Format: cell-based

Compound	IC50
COC1/C=C/C=C/CC/C=C/C=C/C(=O)NC(C(O)C(=O)O)C(=O)OC(C(NC(=O)C(C)C(O)CCC(C)C(O)/C(C)=C/C(C)(C)C(O)C(CC(C)C)NC(=O)/C=C/C(C)(C)C(=O)C(C)C(O)C(C)C)C(C)O)C(C)C(O)C/C=C(\C)C(O)C(C)/C=C(\C)C(O)C(C)C(O)CC2CC(C)CC1O2 (configuration not stated) [POECILLASTRIN B]	< 1 µg/mL
COC1/C=C/C=C/CC/C=C/C=C/C(=O)NC(C(O)C(=O)O)C(=O)OC(C(NC(=O)C(C)C(O)CCC(C)C(O)/C(C)=C/C(C)C(O)C(CC(C)C)NC(=O)/C=C/C(C)(C)C(=O)C(C)C(O)C(C)C)C(C)O)C(C)C(O)C/C=C(\C)C(O)C(C)/C=C(\C)C(O)C(C)C(O)CC2CC(C)CC1O2 (configuration not stated) [POECILLASTRIN C]	< 1 µg/mL
